Assay results as given in US20240124398A1 (priority 2021, published 2024).
Several values for one entry are separate records, joined by “and”; a condition that tells them apart may be missing. Identical values can stand only once. Entries after “also recorded” stand apart in the source; their conditions may differ. Counter-ions that a name gives are not always drawn.

Assays:
[1] = Static storage for 7 days at 40° C./75% RH (XRPD and HPLC); settings: for Static Storage 40° C./75% RH: HPLC: HPLC purity after 7 days at 40° C. and 75% relative humidity; for Static Storage 40° C./75% RH: XRPD: XRPD pattern after 7 days at 40° C. and 75% relative humidity
[2] = Intrinsic dissolution rate (IDR); format: physicochemical; settings: for IDR (in words): ranking among TAR Pattern 1, SUC Pattern 3, BEN Pattern 1
GVS (hygroscopicity) = format: physicochemical
[3] = Solubility of psilocin salts in saline; settings: for XRPD of Residue: solid residue after 5 hours in saline; for Solubility (in words): comparison among forms or with freeform
[4] = Table 9, saturated solution in saline, 25° C., 5 hours

## CN(C)CCc1c[nH]c2cccc(O)c12.O=C(O)c1ccccc1 [BEN Pattern 1, Psilocin benzoate]
[1]
  Static Storage 40° C./75% RH: HPLC: HPLC- 99.0%
  Static Storage 40° C./75% RH: XRPD: BEN Pattern 1
[2]
  IDR: 0.4 mg/min/cm2
  IDR (in words): lowest
GVS (hygroscopicity)
  GVS hygroscopicity (in words): Non-hygroscopic
  GVS reversible mass change between 0-90% RH: Reversible 0.25%
[3]; Table 9, saturated solution in saline, 25° C., 5 hours, listed as Psilocin benzoate BEN Pattern 1
  pH at 5 hrs: 6.8 and 6.9
[3]; Table 9
  XRPD of Residue: BEN Pattern 1
[3]; Table 10 (updated), saline, listed as Psilocin benzoate BEN Pattern 1
  pH at 5 hrs: 6.8 and 6.9
[3]; saline
  Solubility (in words): substantial increases in solubility compared with the freeform; also recorded: lowest solubility
[3]; summary Table 4, saline, 25° C., 5 hours
  Solubility in Saline: 5000 µg/mL

## CN(C)CCc1c[nH]c2cccc(O)c12.O=S(=O)(O)c1cccc2c(S(=O)(=O)O)cccc12 [Psilocin 1,5-napthalenedisulfonate NAP Pattern 1]
[1]
  Static Storage 40° C./75% RH: HPLC: HPLC- 97.2%
  Static Storage 40° C./75% RH: XRPD: NAP Pattern 1
[3]; [4]
  pH at 5 hrs: 2.0
[3]; Table 9
  XRPD of Residue: NAP Pattern 1
[3]; Table 10 (updated), saline
  pH at 5 hrs: 2.0
[3]; saline
  Solubility (in words): substantial increases in solubility compared with the freeform

## CN(C)CCc1c[nH]c2cccc(O)c12.O=S(=O)(O)c1cccc2c(S(=O)(=O)O)cccc12 [Psilocin 1,5-napthalenedisulfonate NAP Pattern 2]
[1]
  Static Storage 40° C./75% RH: HPLC: HPLC - 99.2%
  Static Storage 40° C./75% RH: XRPD: NAP Pattern 1

## CN(C)CCc1c[nH]c2cccc(O)c12 [Psilocin free base, Psilocin, reference compound]
[2]
  IDR: [Freeform = 0.09] mg/min/cm2
[3]; [4]
  pH at 5 hrs: 9.8 and 9.9
[3]; Table 9
  XRPD of Residue: Freeform Pattern 1
[3]; Table 10 (updated), saline
  pH at 5 hrs: 9.8 and 9.9

## CN(C)CCc1c[nH]c2cccc(O)c12 [Psilocin hydrochloride HCl Pattern 1, Psilocin hydrochloride]
[3]; Table 9, saturated solution in saline, 25° C., 5 hours, hydrochloride
  pH at 5 hrs: 6.0 and 6.1
[3]; Table 10 (updated), saline, hydrochloride
  pH at 5 hrs: 4.0 and 5.4

## CCC(=O)O.CN(C)CCc1c[nH]c2cccc(O)c12 [Psilocin propionate PRO Pattern 1, Psilocin propionate]
[1]
  Static Storage 40° C./75% RH: HPLC: HPLC- 99.4%
  Static Storage 40° C./75% RH: XRPD: PRO Pattern

## CN(C)CCc1c[nH]c2cccc(O)c12.O=C(O)c1ccccc1O [Psilocin salicylate SAL Pattern 1, Psilocin salicylate]
[1]
  Static Storage 40° C./75% RH: HPLC: HPLC- 99.1%
  Static Storage 40° C./75% RH: XRPD: SAL Pattern
[3]; [4]
  pH at 5 hrs: 4.2
[3]; Table 9
  XRPD of Residue: SAL Pattern 1
[3]; Table 10 (updated), saline
  pH at 5 hrs: 4.2
[3]; saline
  Solubility (in words): substantial increases in solubility compared with the freeform

## CN(C)CCc1c[nH]c2cccc(O)c12.O=C(O)c1ccccc1O [Psilocin salicylate SAL Pattern 2, Psilocin salicylate]
[1]
  Static Storage 40° C./75% RH: HPLC: HPLC- 99.8%
  Static Storage 40° C./75% RH: XRPD: SAL Pattern 2 +

## Psilocin acetate [Psilocin acetate ACE Pattern 1]
[1]
  Static Storage 40° C./75% RH: HPLC: HPLC - 75.2%
  Static Storage 40° C./75% RH: XRPD: ACE Pattern 1 +

## Psilocin acetate [Psilocin acetate ACE Pattern 2]
[1]
  Static Storage 40° C./75% RH: HPLC: HPLC- 83.4%
  Static Storage 40° C./75% RH: XRPD: ACE Pattern 3

## Psilocin adipate [Psilocin adipate ADI Pattern 1]
[1]
  Static Storage 40° C./75% RH: HPLC: HPLC- 98.4%
  Static Storage 40° C./75% RH: XRPD: ADI Pattern 1 +

## Psilocin adipate [Psilocin adipate ADI Pattern 2]
[1]
  Static Storage 40° C./75% RH: HPLC: HPLC- 98.1%
  Static Storage 40° C./75% RH: XRPD: ADI Pattern 3

## Psilocin fumarate [Psilocin fumarate FUM Pattern 1]
[1]
  Static Storage 40° C./75% RH: XRPD: FUM Pattern 3; also recorded: FUM Pattern 4

## Psilocin oxalate [Psilocin oxalate OX Pattern 1]
[1]
  Static Storage 40° C./75% RH: HPLC: HPLC- 94.4%
  Static Storage 40° C./75% RH: XRPD: OX Pattern 3

## Psilocin oxalate [Psilocin oxalate OX Pattern 2]
[1]
  Static Storage 40° C./75% RH: HPLC: HPLC- 97.1%
  Static Storage 40° C./75% RH: XRPD: OX Pattern 3 +

## Psilocin pamoate [Psilocin pamoate PAM Pattern 1]
[1]
  Static Storage 40° C./75% RH: HPLC: HPLC- 99.6%
  Static Storage 40° C./75% RH: XRPD: PAM Pattern 1

## Psilocin phosphate [Psilocin phosphate PHO Pattern 1]
[1]
  Static Storage 40° C./75% RH: HPLC: HPLC - 93.9%
  Static Storage 40° C./75% RH: XRPD: PHO Pattern 2

## Psilocin succinate
[1]
  Static Storage 40° C./75% RH: XRPD: SUC Pattern 5

## Psilocin succinate [SUC Pattern 3]
[2]
  IDR: 12.4 mg/min/cm2
  IDR (in words): highest IDR
GVS (hygroscopicity)
  GVS hygroscopicity (in words): hygroscopic
GVS (hygroscopicity); 0-80% RH
  GVS mass change between 0 and 80% RH: Only 1.0% mass

## Psilocin tartrate
[1]
  Static Storage 40° C./75% RH: XRPD: TAR Pattern 4

## Psilocin tartrate [TAR Pattern 1]
[2]
  IDR: 6.9 mg/min/cm2
  IDR (in words): second highest IDR
GVS (hygroscopicity)
  GVS hygroscopicity (in words): Slightly Hygroscopic
  GVS reversible mass change between 0-90% RH: Reversible 1.4%
[3]; [4]
  pH at 5 hrs: 3.4
[3]; Table 10 (updated), saline
  pH at 5 hrs: 3.5
